Data published in patent US11826402B2, “Combination therapy involving antibodies against claudin 18.2 for treatment of metastatic pancreatic adenocarcinoma” (Astellas Pharma Inc., priority 2013, dated 2023).

Tests used:
[1] = tested on: established MiaPaCa-2-LVT xenograft tumors; assay: Established MiaPaCa-2-LVT xenograft tumors, high dose gemcitabine; assay type: in vivo, mice; details: established MiaPaCa-2-LVT tumors, gemcitabine 2×150 mg/kg per week, independent from IMAB362
Source text: 9 days after subcutaneous tumor inoculation, tumor bearing mice reorganised in homogenous treatment groups with 8 animals per group and treatment was initiated.

[2] = tested on: KATO-III; assay: IMAB362-induced ADCC on gastric cancer cells, also after chemotherapy pretreatment; assay type: cell-based, human; details: KATO-III; up to 200 μg/ml, 24 hours, human PBMC E:T 40:1
Method: Peripheral blood mononuclear cells (PBMCs) including NK cells, monocytes, […] or other effector cells from healthy human donors were purified by Ficoll Hypaque density centrifugation. Washed effector cells were seeded in X-Vivo medium. Kato III cells which express CLDN18.2 endogenously and are of gastric origin were used as target cells in this setting. Target cells stably expressed luciferase, lucifer yellow, which is oxidized by viable cells only.

[3] = tested on: BxPC3; assay: IMAB362-mediated CDC assay (healthy human serum pool, luciferase); assay type: cell-based
Method: (§1) CDC was performed as follows.

[4] = target: DANG; assay: as above; assay type: cell-based
Method: as §1

[5] = Phase I clinical study, single intravenous administration; assay type: in vivo, human
Source text: IMAB362 is in early clinical testing. A phase I clinical study has been conducted in human. […] In an ongoing phase IIa clinical study IMAB362 is given repetitively.

[6] = tested on: CLDN18.2 on the cell surface of pancreatic cancer cell lines; assay: Flow cytometry (FACS) of IMAB362 on pancreatic cancer cell lines; assay type: binding, human; details: 2E5 cells/100 μl with 50 μg/ml IMAB362
Method: Cells were harvested with PBS/5 mM EDTA or Trypsin/EDTA from an exponentially growing culture at 70-85% confluency. Cells were counted, centrifuged for 5 min (468 g) and the pellet was resuspended in FACS buffer (2% FCS, 0.1% sodium azide in PBS) adjusting the concentration to 2×10^6/ml. 100 μl cells were plated in round bottom 96-well plates and again centrifuged (5 min, 468 g). […] Then, 200 μl FACS buffer was added to each well and plates were centrifuged (5 min, 468 g). The supernatant was removed and washing was repeated. Secondary goat anti-human antibodies (FC specific, F(ab′)2 conjugated with APC (Dianova)) were diluted (1:100) in FACS buffer and 30 μl was added to each well. Plates were incubated for 30 min at 4° C. After incubation plates were washed again two times with 200 μl FACS buffer and the pellet was finally resuspended in 100 μl FACS buffer for measurement FACS Array Bioanalyzer (BD) according to GA_018_BD FACS Array bioanalyzer.

[7] = tested on: HUP-T3; assay: IMAB362-mediated ADCC assay; assay type: cell-based, human; details: at least 2 donors
[8] = tested on: Panc01; assay: IMAB362-mediated ADCC assay; assay type: cell-based, human; details: at least 2 donors
[9] = tested on: SW1990; assay: IMAB362-mediated ADCC assay; assay type: cell-based, human; details: at least 2 donors

Nc1ccn([C@@H]2O[C@H](CO)[C@@H](O)C2(F)F)c(=O)n1 [gemcitabine, 4-amino-1-(2-deoxy-2,2-difluoro-β-D-erythro-pentofuranosyl)pyrimidin-2(1H)-one]
tumor growth [1]: strongly inhibited in tumor growth

IMAB362: chimeric IgG1 antibody directed against CLDN18.2, developed by Ganymed Pharmaceuticals AG
maximum lysis rates (ADCC) [2]: 80-100%
complement-dependent lysis [3]: not lysed
CDC EC50 [4]: n.m.
CDC Max. lysis [4]: n.m.
complement-dependent lysis ([4]; healthy human serum pool): not lysed
measured tumor markers ([5]; one patient, within 4 weeks after treatment): decreased significantly
tolerability in patients ([5]; single i.v. administration 33-1000 mg/m^2, observed 28 days): very well tolerated
CLDN18 surface expression (FACS) ([6]; AsPC1): 0.14%
CLDN18 surface expression (FACS) ([6]; BxPC3 (ATCC)): 1.16%
CLDN18 surface expression (FACS) ([6]; BxPC3 (ECACC)): 0.90%
CLDN18 surface expression (FACS) ([6]; CAPAN1): 0.54%
CLDN18 surface expression (FACS) ([6]; CFPAC1): 0.55%
CLDN18 surface expression (FACS) ([6]; DANG): 1.19%
CLDN18 surface expression (FACS) ([6]; HPAC): 0.81%
CLDN18 surface expression (FACS) ([6]; HPAFII): 10.00%
CLDN18 surface expression (FACS) ([6]; HUP-T3): 0.23%
CLDN18 surface expression (FACS) ([6]; HUP-T4): 5.30%
CLDN18 surface expression (FACS) ([6]; KP-2): 0.54%
CLDN18 surface expression (FACS) ([6]; MiaPaCa2): 0.22%
CLDN18 surface expression (FACS) ([6]; Panc01): 65%
CLDN18 surface expression (FACS) ([6]; Panc03.27): 7.30%
CLDN18 surface expression (FACS) ([6]; Panc04.03): 1.38%
CLDN18 surface expression (FACS) ([6]; Panc05.04): 15%
CLDN18 surface expression (FACS) ([6]; Patu8902): 0.39%
CLDN18 surface expression (FACS) ([6]; Patu8988T): 6.00%
CLDN18 surface expression (FACS) ([6]; SW1990): 2.53%
CLDN18 surface expression (FACS) ([6]; Su86.86): 1.51%
CLDN18 surface expression (FACS) ([6]; Suit2): 0.41%
CLDN18 surface expression (FACS) ([6]; YPAC): 0.23%
ADCC EC50 [7]: n.m.
ADCC EC50 [8]: n.m.
ADCC Max. lysis [8]: 0-4.5%
ADCC EC50 [9]: n.m.
ADCC Max. lysis [9]: n.m.
